Usually IC50 stands for the midpoint of a concentration-inhibition curve.

The values that follow come from patent US20050049186A1, “Peptides mimicking the biological activity of steroid hormones and their uses” (priority 2000, published 2005).

Peptide text beside a SMILES is read from it.

The subject of one assay is anti-E2, clone 15. The assay can be described thus: ELISA: competition with solid-phase estradiol ovalbumin conjugate for anti-E2 clone 15. It is filed as binding, mouse. The source says:
(§1) ELISA methodology was used first for the initial screening of the various peptides for antibody binding specificity.

The test system of assay [1] is anti-E2 antibodies, clones 8D9, 11B6 and 2F9. Briefly: ELISA: competition with solid-phase estradiol ovalbumin conjugate for other high affinity anti-E2 antibodies. It is filed as binding. To be noted: peptide at 0.5 mM.
Description: as §1
A general note: An ELISA detects its analyte on a solid surface through an enzyme-linked reagent.

The subject of assay [2] is anti-progesterone, clone 1E11, anti-estriol, clone 9B4, anti-testosterone, clone 5F2. Briefly: ELISA: competition with solid phase hapten protein conjugates for homologous anti-steroidal antibodies. To be noted: data not shown. It is filed as binding.
Description: as §1

Assay [3] addresses anti-estradiol mAb, clone 15. Briefly: Competitive binding radioimmunoassay with [3H]-estradiol. Further details: species or system mouse. To be noted: RIA, FIG. 1; read-out: IC50, competition with [3H]-estradiol for binding sites of anti-estradiol mAb clone 15.
A further assay has as its target ER β (Homo sapiens, UniProt Q92731). Briefly: Receptor binding assay for estrogen receptor beta.
Assay [4] concerns creatine kinase (CK) specific activity in rat tissues. The assay can be described thus: Stimulation of creatine kinase specific activity in rat tissues in vivo. On the procedure:
The control goups received 0.5 ml saline containing 0.5% ethanol or tris-saline alone. The various organs were assayed for CK activity four hours after treatment.

The target in assay [5] is anti-estradiol mAb clone 15. The assay can be described thus: Competitive immunoassay: inhibition of binding of labeled E2 (estradiol ovalbumin europium conjugate) to anti-E2 clone 15. The settings on record: Table 5; estradiol ovalbumin europium conjugate. Also on record: species or system mouse. An excerpt: […]. The linear peptide 1 is 15-amino acid long. We further explored the possibility whether smaller peptides derived from peptide 1 may have antibody binding activity and receptor binding activity. In order to find out the minimum amino acid sequence required in the linear peptide 1 for antibody and receptor binding, several peptides with varying length of from 4 to 14 amino acids long were synthesized, and were first evaluated in terms of binding to anti-estradiol (E2) mAb clone 15. The peptides showing similar or better antibody binding activity than the linear peptide 1 were further evaluated in terms of binding to ERα and β.

[6] abbreviates: immature female rats, four hours after treatment, estradiol 5 μg/rat, peptides and raloxifene 0.5 mg/rat, mean ± S.E.M., n=15.

Sequence of ER β (Q92731 whole entry, species assumed): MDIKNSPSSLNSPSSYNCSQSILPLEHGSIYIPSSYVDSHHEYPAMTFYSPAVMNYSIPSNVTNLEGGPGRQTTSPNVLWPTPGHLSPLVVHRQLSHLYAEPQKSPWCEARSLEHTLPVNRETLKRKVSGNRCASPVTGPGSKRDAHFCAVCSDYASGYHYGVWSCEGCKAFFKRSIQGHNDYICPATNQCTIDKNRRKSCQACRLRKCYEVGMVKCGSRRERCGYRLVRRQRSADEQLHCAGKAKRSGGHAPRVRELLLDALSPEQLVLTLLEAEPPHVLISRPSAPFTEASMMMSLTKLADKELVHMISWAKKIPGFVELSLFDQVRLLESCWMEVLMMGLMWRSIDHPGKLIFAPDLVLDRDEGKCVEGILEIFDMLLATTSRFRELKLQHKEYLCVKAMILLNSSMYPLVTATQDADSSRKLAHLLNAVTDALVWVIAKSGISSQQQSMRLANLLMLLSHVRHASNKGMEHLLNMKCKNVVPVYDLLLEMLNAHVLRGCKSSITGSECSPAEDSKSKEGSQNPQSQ

`CC(C)C[C@H](NC(=O)[C@H](C)NC(=O)[C@@H]1CCCN1C(=O)[C@@H](N)CC(C)C)C(=O)N[C@@H](CC(=O)O)C(=O)N1CCC[C@H]1C(=O)N[C@H](C(=O)N[C@@H](CCCCN)C(=O)N[C@@H](CCCNC(=N)N)C(=O)N[C@@H](Cc1c[nH]c2ccccc12)C(=O)N[C@@H](Cc1ccccc1)C(=O)N[C@@H](Cc1ccccc1)C(=O)N[C@@H](CCC(=O)O)C(=O)N[C@H](C(=O)N[C@@H](CCCCN)C(=O)O)[C@@H](C)O)[C@@H](C)O` [Peptide 1] (H-LPALDPTKRWFFETK-OH; N-terminus and C-terminus assumed): in the assay on anti-E2, clone 15 (ELISA, peptide at a concentration of 0.5 mM), the “inhibition of the binding of immobilized estradiol ovalbumin conjugate to anti-E2, clone 15” value was found to be 36%. Besides, the “recognition of anti-E2 mAb clone 15” value with anti-E2, clone 15 (initial binding studies) is “recognized”. In assay [1], the “inhibition of the binding of immobilized estradiol ovalbumin conjugate to other high affinity anti-E2 antibodies” value was “not”. Moreover, in assay [2], the “competing with solid phase hapten protein conjugates for the binding sites of homologous anti-steroidal antibodies” value was “not capable of competing”. The IC50 in assay [3] was roughly 5000 nM. Besides, at ER β (FIG. 3), the “binding to ER β” value is recorded as “none”. Besides, the “IC50 to ERβ” value at ER β (Table 5) was “none”. Further, in assay [4] (higher concentration 2.5 mg/rat, data not shown), the “stimulation of CK activity in rat tissues” value was “stimulated the CK activity in the epiphysis and aorta as well”. For the same molecule, the “increase in the specific activity of creatine kinase (CK) in rat tissues” value in assay [4] (immature female rats, 4 hours, estradiol 5 μg/rat, peptides 0.5 mg/rat) was “increase in CK activity only in the uterus and left ventricle”. In assay [4] (setting [6]), the “Creatine kinase specific activity (Experimental/control), Aorta” value is listed as 1.35 ± 0.23; the “Creatine kinase specific activity (Experimental/control), Diapysis” value amounted to 1.09 ± 0.17; the “Creatine kinase specific activity (Experimental/control), Epipysis” value is recorded as 1.10 ± 0.09; the “Creatine kinase specific activity (Experimental/control), LV (left ventricle)” value is 1.41 ± 03. In addition, the “Creatine kinase specific activity (Experimental/control), Uterus” value in assay [4] (setting [6]) is recorded as 1.6 ± 0.27. The molecule also registered an IC50 in assay [5] of 1000 nM.
